Reference: PubChem BioAssay AID1963847 (Molecular Pharmacology Branch, DTP, NCI, 2024)

Test system: 415267-285-R-J2-PDC complex spheroid viability
Experiment: Anticancer human tumor 415267-285-R-J2-PDC patient-derived breast carcinoma cell line growth inhibition [POLQ]
Settings: for IC50: curve of first compound; for viability, T/C: stronger effect = lower value
Outline: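 PDC + HUVEC + MSC complex spheroids; POLQ inhibitors ± partner drugs; top conc. at/near clinical Cmax, else 10 microM (SN-38 1 microM), half-log dilutions; 37 degrees C, 5% CO2.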

[1] = second compound 0.0316 µM, first compound 0.0316 µM
[2] = second compound 0.0316 µM, first compound 0.1 µM
[3] = second compound 0.0316 µM, first compound 0.316 µM
[4] = second compound 0.0316 µM, first compound 1 µM
[5] = second compound 0.0316 µM, first compound 3.16 µM
[6] = second compound 0.0316 µM, first compound 10 µM
[7] = second compound 0.1 µM, first compound 0.0316 µM
[8] = second compound 0.1 µM, first compound 0.1 µM
[9] = second compound 0.1 µM, first compound 0.316 µM
[10] = second compound 0.1 µM, first compound 1 µM
[11] = second compound 0.1 µM, first compound 3.16 µM
[12] = second compound 0.1 µM, first compound 10 µM
[13] = second compound 0.316 µM, first compound 0.0316 µM
[14] = second compound 0.316 µM, first compound 0.1 µM
[15] = second compound 0.316 µM, first compound 0.316 µM
[16] = second compound 0.316 µM, first compound 1 µM
[17] = second compound 0.316 µM, first compound 3.16 µM
[18] = second compound 0.316 µM, first compound 10 µM
[19] = second compound 1 µM, first compound 0.0316 µM
[20] = second compound 1 µM, first compound 0.1 µM
[21] = second compound 1 µM, first compound 0.316 µM
[22] = second compound 1 µM, first compound 1 µM
[23] = second compound 1 µM, first compound 3.16 µM
[24] = second compound 1 µM, first compound 10 µM
[25] = second compound 3.16 µM, first compound 0.0316 µM
[26] = second compound 3.16 µM, first compound 0.1 µM
[27] = second compound 3.16 µM, first compound 0.316 µM
[28] = second compound 3.16 µM, first compound 1 µM
[29] = second compound 3.16 µM, first compound 3.16 µM
[30] = second compound 3.16 µM, first compound 10 µM
[31] = second compound 10 µM, first compound 0.0316 µM
[32] = second compound 10 µM, first compound 0.1 µM
[33] = second compound 10 µM, first compound 0.316 µM
[34] = second compound 10 µM, first compound 1 µM
[35] = second compound 10 µM, first compound 3.16 µM
[36] = second compound 10 µM, first compound 10 µM
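Note: spheroids exposed to compounds for one week before readout.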
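Throughout, for viability, T/C: luminescence used as stand-in measure of viable cells; 100% = DMSO vehicle control viability.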

## COc1cccc2c1C(=O)c1c(O)c3c(c(O)c1C2=O)CC(O)(C(=O)CO)CC3OC1CC(N)C(O)C(C)O1 (stereo unspecified) + Cc1cccc(N(C)C(=O)C2C(O)CCN2c2nc(C)cc(C(F)(F)F)c2C#N)c1
Second compound 0.0316 µM
  IC50: < 31.6 nM
Second compound 0.1 µM
  IC50: < 31.6 nM
Second compound 0.316 µM
  IC50: < 31.6 nM
Second compound 1 µM
  IC50: < 31.6 nM
Second compound 3.16 µM
  IC50: < 31.6 nM
Second compound 10 µM
  IC50: < 31.6 nM
[1]
  viability, T/C: 37.8%
[2]
  viability, T/C: 18.6%
[3]
  viability, T/C: 4.26%
[4]
  viability, T/C: 0.86%
[5]
  viability, T/C: 1%
[6]
  viability, T/C: 2.87%
[7]
  viability, T/C: 38.3%
[8]
  viability, T/C: 11.9%
[9]
  viability, T/C: 5.5%
[10]
  viability, T/C: 0.82%
[11]
  viability, T/C: 0.95%
[12]
  viability, T/C: 3.55%
[13]
  viability, T/C: 36.5%
[14]
  viability, T/C: 13.7%
[15]
  viability, T/C: 4.69%
[16]
  viability, T/C: 0.81%
[17]
  viability, T/C: 1.46%
[18]
  viability, T/C: 2.87%
[19]
  viability, T/C: 42.5%
[20]
  viability, T/C: 8.66%
[21]
  viability, T/C: 4.35%
[22]
  viability, T/C: 0.62%
[23]
  viability, T/C: 1.26%
[24]
  viability, T/C: 2.94%
[25]
  viability, T/C: 40.4%
[26]
  viability, T/C: 13.7%
[27]
  viability, T/C: 5.27%
[28]
  viability, T/C: 0.66%
[29]
  viability, T/C: 1.47%
[30]
  viability, T/C: 2.63%
[31]
  viability, T/C: 24.7%
[32]
  viability, T/C: 9.06%
[33]
  viability, T/C: 7.17%
[34]
  viability, T/C: 0.84%
[35]
  viability, T/C: 3.16%
[36]
  viability, T/C: 3.87%

## Nc1ccn(C2OC(CO)C(O)C2(F)F)c(=O)n1 (stereo unspecified) + Cc1cccc(N(C)C(=O)C2C(O)CCN2c2nc(C)cc(C(F)(F)F)c2C#N)c1
Second compound 0.0316 µM
  IC50: < 31.6 nM
Second compound 0.1 µM
  IC50: < 31.6 nM
Second compound 0.316 µM
  IC50: < 31.6 nM
Second compound 1 µM
  IC50: < 31.6 nM
Second compound 3.16 µM
  IC50: < 31.6 nM
Second compound 10 µM
  IC50: < 31.6 nM
[1]
  viability, T/C: 8.22%
[2]
  viability, T/C: 6.11%
[3]
  viability, T/C: 5.62%
[4]
  viability, T/C: 4.61%
[5]
  viability, T/C: 5.96%
[6]
  viability, T/C: 5.35%
[7]
  viability, T/C: 8.77%
[8]
  viability, T/C: 5.43%
[9]
  viability, T/C: 6.85%
[10]
  viability, T/C: 5.22%
[11]
  viability, T/C: 6.13%
[12]
  viability, T/C: 4.79%
[13]
  viability, T/C: 8.5%
[14]
  viability, T/C: 6.58%
[15]
  viability, T/C: 5.69%
[16]
  viability, T/C: 5.62%
[17]
  viability, T/C: 6.58%
[18]
  viability, T/C: 6.07%
[19]
  viability, T/C: 12.5%
[20]
  viability, T/C: 6.12%
[21]
  viability, T/C: 5.2%
[22]
  viability, T/C: 5.51%
[23]
  viability, T/C: 5.07%
[24]
  viability, T/C: 5.32%
[25]
  viability, T/C: 7.95%
[26]
  viability, T/C: 5.96%
[27]
  viability, T/C: 5.8%
[28]
  viability, T/C: 4.93%
[29]
  viability, T/C: 5.53%
[30]
  viability, T/C: 5.95%
[31]
  viability, T/C: 9.14%
[32]
  viability, T/C: 6.37%
[33]
  viability, T/C: 6.58%
[34]
  viability, T/C: 5.23%
[35]
  viability, T/C: 6.03%
[36]
  viability, T/C: 5.65%

## O=C(c1cc(Cc2n[nH]c(=O)c3ccccc23)ccc1F)N1CCN(C(=O)C2CC2)CC1 + Cc1cccc(N(C)C(=O)C2C(O)CCN2c2nc(C)cc(C(F)(F)F)c2C#N)c1
Second compound 0.0316 µM
  IC50: > 10000 nM
Second compound 0.1 µM
  IC50: > 10000 nM
Second compound 0.316 µM
  IC50: > 10000 nM
Second compound 1 µM
  IC50: > 10000 nM
Second compound 3.16 µM
  IC50: > 10000 nM
Second compound 10 µM
  IC50: > 10000 nM
[1]
  viability, T/C: 87.6%
[2]
  viability, T/C: 101%
[3]
  viability, T/C: 102%
[4]
  viability, T/C: 99.7%
[5]
  viability, T/C: 103%
[6]
  viability, T/C: 82.9%
[7]
  viability, T/C: 94%
[8]
  viability, T/C: 96.2%
[9]
  viability, T/C: 96.5%
[10]
  viability, T/C: 106%
[11]
  viability, T/C: 91.2%
[12]
  viability, T/C: 78.3%
[13]
  viability, T/C: 95.3%
[14]
  viability, T/C: 98.3%
[15]
  viability, T/C: 99.4%
[16]
  viability, T/C: 111%
[17]
  viability, T/C: 95.8%
[18]
  viability, T/C: 86.6%
[19]
  viability, T/C: 104%
[20]
  viability, T/C: 95.1%
[21]
  viability, T/C: 95.8%
[22]
  viability, T/C: 98.2%
[23]
  viability, T/C: 92.9%
[24]
  viability, T/C: 76.8%
[25]
  viability, T/C: 99.3%
[26]
  viability, T/C: 98.6%
[27]
  viability, T/C: 88.5%
[28]
  viability, T/C: 95.9%
[29]
  viability, T/C: 87.7%
[30]
  viability, T/C: 72.9%
[31]
  viability, T/C: 100%
[32]
  viability, T/C: 85.1%
[33]
  viability, T/C: 87.7%
[34]
  viability, T/C: 98%
[35]
  viability, T/C: 90%
[36]
  viability, T/C: 68%
